Reference: publication PMC6395926, “Mass Balance and Drug Interaction Potential of Intravenous Eravacycline Administered to Healthy Subjects” (Antimicrobial Agents and Chemotherapy, 2019)

Experiments:
[1] = Mass balance study: PK of total radioactivity in whole blood and plasma; type: in vivo, human; settings: for Cmax, total radioactivity: geometric mean (%CV), n = 5
From the text: (§1) (ii) Study design. This was a single-center, open-label study of a single i.v. dose of [^14C]eravacycline to assess the mass balance recovery and PK of eravacycline. The primary objectives were to determine mass balance recovery, determine routes and rates of excretion, provide metabolite profiling and structural identification, and assess the PK of radioactivity in plasma and whole blood. Subjects were screened for inclusion in the study, including a detailed medical history, physical examination, and laboratory evaluations, in the 28 days before dosing. Eligible subjects were admitted to the clinical study unit at approximately 21:00 on the evening prior to study drug administration (day −1) and remained on site until 240 h postdose for collection of urine, feces, and blood samples. After an overnight fast, each subject received 60 mg [^14C]eravacycline containing not more than 3.8 MBq (105 μCi) ^14C as a single i.v. infusion over 60 min.
(iv) Determination of radioactivity. […] Plasma and whole-blood concentrations of total radioactivity were determined using an analytical method at Quotient Bioresearch (Rushden, Northamptonshire, UK). The lower limit of quantification (LLOQ) for total radioactivity was 11 to 13 ng equivalents (equiv)/ml in plasma and 41 to 46 ng equiv/g in whole blood.
(vi) Study assessments. PK parameters were determined for total radioactivity in plasma and whole blood. Eravacycline, TP-498, and TP-6208 concentrations in plasma were quantified using a validated assay with internal standards. […]
(§2) (viii) Study analysis. Descriptive statistics (mean, median, standard deviation [SD], percent coefficient of variation [%CV], minimum, maximum, number, geometric mean, and geometric %CV) were calculated for all concentration data. Pharmacokinetic parameters were calculated using Phoenix WinNonlin v6.3 (Certera USA, Inc.).

[2] = Mass balance study: plasma PK of eravacycline, TP-498 and TP-6208 (LC-MS); type: in vivo, human; settings: plasma, single i.v. dose of [14C]eravacycline
From the text: as §1
(vi) Study assessments. PK parameters were determined for total radioactivity in plasma and whole blood. Eravacycline, TP-498, and TP-6208 concentrations in plasma were quantified using a validated assay with internal standards. The following PK parameters were determined: Cmax, Tmax, time from dosing before the first quantifiable concentration in a concentration versus time profile (Tlag), AUC0–t, AUC0–24, AUC0–∞, the percentage of AUC0–∞ extrapolated beyond the time of the last measurable concentration (AUC%extrap), the slope of the apparent terminal phase (lambda-z), the apparent terminal half-life (t1/2), the mean residence time estimated between time zero and infinity (MRT0-∞), the apparent volume of plasma cleared of analyte per unit time (CL), and the volume of distribution of analyte at steady state (Vss).
Plasma concentrations of eravacycline, TP-498, and TP-6208 were measured by liquid chromatography with tandem mass spectrometry (LC-MS). The LLOQ was 5 ng/ml for eravacycline, TP-498, and TP-6208. The calibration ranges for eravacycline, TP-498, and TP-6208 in human urine were 50 to 10,000 ng/ml, 50 to 1,000 ng/ml, and 20 to 1,000 ng/ml, respectively. The calibration ranges for eravacycline, TP-498, and TP-6208 in human plasma were 5 to 500 ng/ml.
as §2

[3] = human, iv, 60 mg, geometric mean (%CV), n = 2

What does the source list for `CN(C)[C@@H]1C(O)=C(C(N)=O)C(=O)[C@@]2(O)C(O)=C3C(=O)c4c(O)c(NC(=O)CN5CCCC5)cc(F)c4C[C@H]3C[C@@H]12` [eravacycline]?
Cmax, total radioactivity ([1]; plasma): 893 (18.0) ng equiv/ml; time postdose total radioactivity remained quantifiable ([1]; plasma, majority of subjects): up to 241 h; Cmax, total radioactivity ([1]; whole blood): 911 (14.5) ng equiv/ml; clearance [2, 3]: 228 ± 13.8 mL/min; half-life [2, 3]: 18.2 ± 5 h; MRT inf ([2]; human, iv, 60 mg, geometric mean (%CV), n = 2, read-out: MRT0-∞): 15.9 ± 8.9 h; CL renal ([2]; human, iv, 60 mg, geometric mean (%CV), n = 5): 41.9 ± 16.6 mL/min; Tmax ([2]; male, human, iv, 60 mg): 0.55 to 1 h; AUC(0-inf) ([2]; male, human, iv, 60 mg, geometric mean (%CV), n = 2): 4380 ng·h/mL; Cmax ([2]; male, human, iv, 60 mg, geometric mean (%CV), n = 5, read-out: Cmax): 1100 ng/mL; Vd ([2]; male, human, iv, 60 mg, geometric mean (%CV), n = 2, read-out: Vss (volume of distribution)): 217 ± 4.9 L; time postdose plasma concentrations were quantifiable [2]: approximately 73 h
